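Exposure lasted 48 hours, with cells grown in 96-well plates and compounds tested at five concentrations. GI50 is the concentration that inhibits growth by half.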 Active and inactive are the calls of the source. Cut-off read from the data, not from the text of the source: active = GI50 up to about 1.1 µM and inactive = higher.
How the values were obtained:
Test in all cases: inhibition of tumour cell growth, NCI panel, 48 h
[1] = test system: 786-0
[2] = test system: A498
[3] = test system: A549
[4] = test system: ACHN
[5] = test system: BT-549
[6] = test system: CAKI-1
[7] = test system: CCRF-CEM
[8] = test system: COLO 205
[9] = test system: DU-145
[10] = test system: EKVX
[11] = test system: HCC 2998
[12] = test system: HCT-116
[13] = test system: HCT-15
[14] = test system: HL-60
[15] = test system: HOP-62
[16] = test system: HOP-92
[17] = test system: HT-29
[18] = test system: Hs-578T
[19] = test system: K562
[20] = test system: KM12
[21] = test system: LOX IMVI
[22] = test system: M14
[23] = test system: MCF7
[24] = test system: MDA-MB-231
[25] = test system: MDA-MB-435
[26] = test system: MDA-N
[27] = test system: MOLT-4
[28] = test system: NCI-H226
[29] = test system: NCI-H23
[30] = test system: NCI-H460
[31] = test system: NCI-H522
[32] = test system: NCI/ADR-RES
[33] = test system: OVCAR-3
[34] = test system: OVCAR-4
[35] = test system: OVCAR-5
[36] = test system: OVCAR-8
[37] = test system: PC-3
[38] = test system: RXF 393
[39] = test system: SF-268
[40] = test system: SF-295
[41] = test system: SF-539
[42] = test system: SK-MEL-28
[43] = test system: SK-MEL-2
[44] = test system: SK-MEL-5
[45] = test system: SK-OV-3
[46] = test system: SN12C
[47] = test system: SNB-19
[48] = test system: SNB-75
[49] = test system: SR
[50] = test system: SW-620
[51] = test system: T47D
[52] = test system: TK-10
[53] = test system: U-251
[54] = test system: UACC-257
[55] = test system: UACC-62
[56] = test system: UO-31
[57] = test system: IGROV-1
[58] = test system: Malme-3M
[59] = test system: RPMI-8226

Question: With `C/C=C1/CN2CCc3c([nH]c4ccccc34)[C@@H]2C[C@@H]1Cc1nccc2c1[nH]c1cc(O)ccc12` as the compound, how does the GI50 [1] read?
Answer: Its GI50 is 1.61 µM (inactive).

Question: What about the GI50 [2] of the same compound?
Answer: The GI50 was 1.93 µM (inactive).

Question: And the GI50 [3]?
Answer: Its GI50 is 2.23 µM (inactive).

Question: What about the GI50 [4] of the same compound?
Answer: Its GI50 is 2.29 µM (inactive).

Question: And the GI50 [5]?
Answer: The GI50 was 13.9 µM (inactive).

Question: And the GI50 [6]?
Answer: Its GI50 is 1.73 µM (inactive).

Question: What about the GI50 [7] of the same compound?
Answer: The GI50 was 2.9 µM (inactive).

Question: What about the GI50 [8] of the same compound?
Answer: The GI50 was 2.78 µM (inactive).

Question: What about the GI50 [9] of the same compound?
Answer: Its GI50 is 2.07 µM (inactive).

Question: What about the GI50 [10] of the same compound?
Answer: The GI50 was 2.07 µM (inactive).

Question: What about the GI50 [11] of the same compound?
Answer: Its GI50 is 1.42 µM (inactive).

Question: And the GI50 [12]?
Answer: The GI50 was 1.67 µM (inactive).

Question: And the GI50 [13]?
Answer: Its GI50 is 2.9 µM.

Question: What about the GI50 [14] of the same compound?
Answer: The GI50 was 2.45 µM (inactive).

Question: And the GI50 [15]?
Answer: The GI50 was 1.98 µM (inactive).

Question: And the GI50 [16]?
Answer: The GI50 was 6.38 µM (inactive).

Question: What about the GI50 [17] of the same compound?
Answer: Its GI50 is 1.87 µM (inactive).

Question: What about the GI50 [18] of the same compound?
Answer: The GI50 was 2.23 µM (inactive).

Question: And the GI50 [19]?
Answer: Its GI50 is 2.13 µM (inactive).

Question: What about the GI50 [20] of the same compound?
Answer: The GI50 was 1.95 µM (inactive).

Question: What about the GI50 [21] of the same compound?
Answer: The GI50 was 2.77 µM (inactive).

Question: And the GI50 [22]?
Answer: Its GI50 is 2.16 µM (inactive).

Question: What about the GI50 [23] of the same compound?
Answer: Its GI50 is 2.62 µM (inactive).

Question: What about the GI50 [24] of the same compound?
Answer: Its GI50 is 1.64 µM (inactive).

Question: And the GI50 [25]?
Answer: Its GI50 is 1.9 µM (inactive).

Question: What about the GI50 [26] of the same compound?
Answer: The GI50 was 2.01 µM (inactive).

Question: And the GI50 [27]?
Answer: The GI50 was 2.58 µM (inactive).

Question: And the GI50 [28]?
Answer: Its GI50 is 3.85 µM (inactive).

Question: And the GI50 [29]?
Answer: Its GI50 is 2.1 µM (inactive).

Question: And the GI50 [30]?
Answer: The GI50 was 16.5 µM (inactive).

Question: And the GI50 [31]?
Answer: The GI50 was 1.89 µM (inactive).

Question: And the GI50 [32]?
Answer: The GI50 was 1.72 µM (inactive).

Question: And the GI50 [33]?
Answer: The GI50 was 2.39 µM (inactive).

Question: What about the GI50 [34] of the same compound?
Answer: Its GI50 is 1.57 µM (inactive).

Question: And the GI50 [35]?
Answer: The GI50 was 2.93 µM (inactive).

Question: What about the GI50 [36] of the same compound?
Answer: Its GI50 is 1.9 µM (inactive).

Question: And the GI50 [37]?
Answer: The GI50 was 2.25 µM (inactive).

Question: And the GI50 [38]?
Answer: The GI50 was 2.24 µM (inactive).

Question: What about the GI50 [39] of the same compound?
Answer: The GI50 was 1.77 µM (inactive).

Question: What about the GI50 [40] of the same compound?
Answer: Its GI50 is 1.9 µM (inactive).

Question: And the GI50 [41]?
Answer: The GI50 was 2.02 µM (inactive).

Question: What about the GI50 [42] of the same compound?
Answer: The GI50 was 1.92 µM (inactive).

Question: And the GI50 [43]?
Answer: Its GI50 is 2.05 µM (inactive).

Question: And the GI50 [44]?
Answer: Its GI50 is 1.57 µM (inactive).

Question: What about the GI50 [45] of the same compound?
Answer: Its GI50 is 2.17 µM (inactive).

Question: What about the GI50 [46] of the same compound?
Answer: Its GI50 is 1.66 µM (inactive).

Question: What about the GI50 [47] of the same compound?
Answer: Its GI50 is 2.26 µM (inactive).

Question: And the GI50 [48]?
Answer: Its GI50 is 1.64 µM (inactive).

Question: What about the GI50 [49] of the same compound?
Answer: Its GI50 is 11.7 µM (inactive).

Question: What about the GI50 [50] of the same compound?
Answer: Its GI50 is 2.82 µM (inactive).

Question: What about the GI50 [51] of the same compound?
Answer: The GI50 was 2.14 µM (inactive).

Question: What about the GI50 [52] of the same compound?
Answer: Its GI50 is 1.95 µM (inactive).

Question: And the GI50 [53]?
Answer: The GI50 was 2.19 µM (inactive).

Question: And the GI50 [54]?
Answer: Its GI50 is 2.41 µM (inactive).

Question: What about the GI50 [55] of the same compound?
Answer: Its GI50 is 2.07 µM (inactive).

Question: And the GI50 [56]?
Answer: Its GI50 is 1.99 µM (inactive).

Question: What does the source list for `Cc1ccc(/C=N/n2c(-c3ccc(C)cc3)n[nH]c2=O)cc1`?
Answer: GI50 [1]: 29.6 µM (inactive); GI50 [2]: 26.9 µM (inactive); GI50 [3]: 41 µM (inactive); GI50 [4]: 79.8 µM (inactive); GI50 [5]: 90.4 µM (inactive); GI50 [6]: 35.9 µM (inactive); GI50 [7]: 21.5 µM (inactive); GI50 [8]: > 100 µM (inactive); GI50 [9]: 91.6 µM (inactive); GI50 [10]: > 100 µM (inactive); GI50 [11]: > 100 µM (inactive); GI50 [12]: 54 µM (inactive); GI50 [13]: 66.7 µM; GI50 [14]: > 100 µM (inactive); GI50 [15]: 61.9 µM (inactive); GI50 [16]: 55.8 µM (inactive); GI50 [17]: > 100 µM (inactive); GI50 [18]: > 100 µM (inactive); GI50 [57]: > 100 µM (inactive); GI50 [19]: 96.4 µM (inactive); GI50 [20]: > 100 µM (inactive); GI50 [22]: 68.4 µM (inactive); GI50 [23]: > 100 µM (inactive); GI50 [24]: 45.8 µM (inactive); GI50 [25]: 47.2 µM (inactive); GI50 [26]: 80.7 µM (inactive); GI50 [27]: 92.7 µM (inactive); GI50 [58]: 80.5 µM (inactive); GI50 [28]: > 100 µM (inactive); GI50 [29]: 29.2 µM (inactive); GI50 [30]: 21.5 µM (inactive); GI50 [31]: > 100 µM (inactive); GI50 [32]: 59.6 µM (inactive); GI50 [33]: > 100 µM (inactive); GI50 [34]: 40 µM (inactive); GI50 [35]: 84.9 µM (inactive); GI50 [36]: 36.7 µM (inactive); GI50 [37]: > 100 µM (inactive); GI50 [59]: > 100 µM (inactive); GI50 [38]: 23.1 µM (inactive); GI50 [39]: > 100 µM (inactive); GI50 [40]: 48.8 µM (inactive); GI50 [41]: 50.4 µM (inactive); GI50 [42]: > 100 µM (inactive); GI50 [43]: > 100 µM (inactive); GI50 [44]: 38.1 µM (inactive); GI50 [45]: 28.7 µM (inactive); GI50 [46]: 94.6 µM (inactive); GI50 [47]: 77.4 µM (inactive); GI50 [48]: > 100 µM (inactive); GI50 [49]: 25.4 µM (inactive); GI50 [50]: > 100 µM (inactive); GI50 [51]: > 100 µM (inactive); GI50 [52]: 60.8 µM (inactive); GI50 [53]: 35.3 µM (inactive); GI50 [54]: > 100 µM (inactive); GI50 [55]: 78 µM (inactive); GI50 [56]: 75 µM (inactive)
